{
  "source": "patent US8834899B2",
  "about": "“Photodynamic therapy-generated mesothelioma vaccine” (The Trustees of the University of Pennsylvania, priority 2006, dated 2014)",
  "system": "AB1 murine mesothelioma cells",
  "assay": "Clonogenic assay after Photofrin PDT",
  "assay_type": "cell-based",
  "settings": "for % Cell Kill / Clonogenic Results (colonies) / Clonogenic Results, Averaged numbers: Photofrin 24 hours",
  "description": "Initial tests were conducted in order to explore the possibility of generating inactivated whole tumor cells from PDT. Three variables were manipulated: Photofrin® incubation time, Photofrin® dosage, and light dosage. Since Photofrin® incubation times may determine cellular uptake—either just within the membrane or further into the cytoplasm—the cells were incubated for either 3-hours or 24-hours, followed by a 3-hour incubation in drug-free media. Second, cells were given a Photofrin dose of either 10 μg/mL or 25 μg/mL. Dosages were determined by consulting both past papers and another PDT research laboratory. Lastly, light dosage was varied. The light source was a Laserscope KTP/YAG laser with a 630 nm Dye Module. […] Laser light dosage was measured in fluence or j/cm^2. Light dosages ranged from 0.125 j/cm^2 to 1.0 j/cm^2.\nLater in the study, dose-response curves followed by clonogenic assays, were performed in order to determine appropriate PDT light dosages for complete cell killing. In these tests, cells were incubated for 24-hours and exposed to high light dosages ranging from 1.0 j/cm^2 to 3.0 j/cm^2. The clonogenic assay measured cell plating efficiency and proliferation and involved plating cells at very low concentrations. After one week, resultant colonies that had formed were counted and compared against controls that had not been lit.\nAll three factors were modified with the intent of producing complete cell death. Cells were incubated in 25 μg/mL of Photofrin® for 3 hours and lit with 2.0 j/cm^2 of light at 630 nm. […] A clonogenic assay was performed to explore the dose-response relationship at this level of light, and the results are summarized in Table 2. For the assay, cells were incubated in 25 μg/mL of Photofrin® for 24 hours and lit with 1.0 to 3.0 j/cm^2 of light. […] After this test, PDT vaccines were generated by incubating cells in 25 μg/mL of Photofrin® for 24 hours and lit with 3.0 j/cm^2 of light.",
  "key": {"[1]": {"settings": "250 cells per plate, 1.5 j/cm^2"}, "[2]": {"settings": "500 cells per plate, 1.0 j/cm^2"}, "[3]": {"settings": "500 cells per plate, 1.5 j/cm^2"}, "[4]": {"settings": "500 cells per plate, 2.0 j/cm^2"}, "[5]": {"settings": "500 cells per plate, 2.0 j/cm^2 (100 mill), lit at high cell concentration"}, "[6]": {"settings": "500 cells per plate, 2.5 j/cm^2"}, "[7]": {"settings": "500 cells per plate, 3.0 j/cm^2"}, "[8]": {"settings": "500 cells per plate, 3.0 j/cm^2 (100 mill), lit at high cell concentration"}, "[9]": {"settings": "1000 cells per plate, 1.0 j/cm^2"}, "[10]": {"settings": "1000 cells per plate, 1.5 j/cm^2"}, "[11]": {"settings": "1000 cells per plate, 2.0 j/cm^2"}, "[12]": {"settings": "1000 cells per plate, 2.0 j/cm^2 (100 mill), lit at high cell concentration"}, "[13]": {"settings": "1000 cells per plate, 2.5 j/cm^2"}, "[14]": {"settings": "1000 cells per plate, 3.0 j/cm^2"}, "[15]": {"settings": "1000 cells per plate, 3.0 j/cm^2 (100 mill), lit at high cell concentration"}},
  "data": [
    {"substance": "Photofrin", "values": [
      {"measurement": "cell kill in clonogenic assay (in words)", "setting": "25 μg/mL Photofrin 24 hours, all conditions, light 1.0 to 3.0 j/cm^2 at 630 nm", "result": "nearly complete cell kill in all conditions"},
      {"measurement": "% Cell Kill", "setting": "[1]", "result": 100, "unit": "%"},
      {"measurement": "Clonogenic Results (colonies)", "setting": "[1]", "result": 0},
      {"measurement": "Clonogenic Results, Averaged numbers", "setting": "[1]", "result": 0.00},
      {"measurement": "% Cell Kill", "setting": "[2]", "result": 100, "unit": "%"},
      {"measurement": "Clonogenic Results (colonies)", "setting": "[2]", "result": 0},
      {"measurement": "Clonogenic Results, Averaged numbers", "setting": "[2]", "result": 0.00},
      {"measurement": "% Cell Kill", "setting": "[3]", "result": 100, "unit": "%"},
      {"measurement": "Clonogenic Results (colonies)", "setting": "[3]", "result": 0},
      {"measurement": "Clonogenic Results, Averaged numbers", "setting": "[3]", "result": 0.00},
      {"measurement": "% Cell Kill", "setting": "[4]", "result": 100, "unit": "%"},
      {"measurement": "Clonogenic Results (colonies)", "setting": "[4]", "result": 0},
      {"measurement": "Clonogenic Results, Averaged numbers", "setting": "[4]", "result": 0.00},
      {"measurement": "% Cell Kill", "setting": "[5]", "result": 100, "unit": "%"},
      {"measurement": "Clonogenic Results (colonies)", "setting": "[5]", "result": 0},
      {"measurement": "Clonogenic Results, Averaged numbers", "setting": "[5]", "result": 0},
      {"measurement": "% Cell Kill", "setting": "[6]", "result": 100, "unit": "%"},
      {"measurement": "Clonogenic Results (colonies)", "setting": "[6]", "result": 0},
      {"measurement": "Clonogenic Results, Averaged numbers", "setting": "[6]", "result": 0},
      {"measurement": "% Cell Kill", "setting": "[7]", "result": 100, "unit": "%"},
      {"measurement": "Clonogenic Results (colonies)", "setting": "[7]", "result": 0},
      {"measurement": "Clonogenic Results, Averaged numbers", "setting": "[7]", "result": 0},
      {"measurement": "% Cell Kill", "setting": "[8]", "result": 99.67, "unit": "%"},
      {"measurement": "Clonogenic Results, Averaged numbers", "setting": "[8]", "result": 0.33},
      {"measurement": "% Cell Kill", "setting": "[9]", "result": 99.85, "unit": "%"},
      {"measurement": "Clonogenic Results, Averaged numbers", "setting": "[9]", "result": 0.33},
      {"measurement": "% Cell Kill", "setting": "[10]", "result": 100.00, "unit": "%"},
      {"measurement": "Clonogenic Results (colonies)", "setting": "[10]", "result": 0},
      {"measurement": "Clonogenic Results, Averaged numbers", "setting": "[10]", "result": 0.00},
      {"measurement": "% Cell Kill", "setting": "[11]", "result": 99.85, "unit": "%"},
      {"measurement": "Clonogenic Results, Averaged numbers", "setting": "[11]", "result": 0.33},
      {"measurement": "% Cell Kill", "setting": "[12]", "result": 100, "unit": "%"},
      {"measurement": "Clonogenic Results (colonies)", "setting": "[12]", "result": 0},
      {"measurement": "Clonogenic Results, Averaged numbers", "setting": "[12]", "result": 0},
      {"measurement": "% Cell Kill", "setting": "[13]", "result": 100, "unit": "%"},
      {"measurement": "Clonogenic Results (colonies)", "setting": "[13]", "result": 0},
      {"measurement": "Clonogenic Results, Averaged numbers", "setting": "[13]", "result": 0},
      {"measurement": "% Cell Kill", "setting": "[14]", "result": 100, "unit": "%"},
      {"measurement": "Clonogenic Results (colonies)", "setting": "[14]", "result": 0},
      {"measurement": "Clonogenic Results, Averaged numbers", "setting": "[14]", "result": 0},
      {"measurement": "% Cell Kill", "setting": "[15]", "result": 99.70, "unit": "%"},
      {"measurement": "Clonogenic Results, Averaged numbers", "setting": "[15]", "result": 0.67}
    ]}
  ]
}
